The record followed here is PubChem BioAssay (NCI).

Common to all, as to test: growth of human tumour cells (NCI), 48 h
Test [1] concerns MCF7 breast.
In test [2] the test system is EKVX NSCLC.
The subject of test [3] is NCI-H522 lung.
Test [4] relates to IGROV1 ovarian.
The test system of test [5] is SNB-19 CNS.
The subject of test [6] is HT29 colon.
The subject of test [7] is TK-10 renal.
Test [8] has as its system UO-31 renal.
Test [9] deals with SK-MEL-5 melanoma.
The subject of test [10] is ACHN renal.

Structures are written as SMILES.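 Assay format: 96-well plates, 48-hour exposure. At the GI50, growth is halved. TGI: concentration producing complete growth inhibition.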 Bounds are passed on as bounds.

Take `CC[C@H](C)[C@H](NC(=O)C12C3C4C1C1C2C3C41NC(C)=O)C(=O)N(C)[C@H](C[C@@H](OC(C)=O)c1nc(C(=O)N[C@@H](Cc2ccccc2)C[C@H](C)C(=O)OC)cs1)C(C)C` (stereo not given in full): the GI50 was 0.0503 µM in test [1]; 2.81 µM in [2]; 0.0637 µM in test [3]; 0.593 µM in test [4]; 0.578 µM in test [5]; 0.36 µM in [6]. Further, the GI50 in test [7] was 1.11 µM; in test [8], 8.55 µM; in test [9], 0.152 µM; in [10], 2.53 µM. In addition, the TGI in test [1] was > 14.3 µM; in test [2] it was > 14.3 µM; in test [3], 0.513 µM; in [4], > 14.3 µM; in test [5] it was > 14.3 µM; in [6], 2.47 µM. In addition, the TGI in test [7] was > 14.3 µM; in test [8], > 14.3 µM; in test [9] it was 2.98 µM; in test [10] it was > 14.3 µM.
Turning to `C[C@H]1[C@@H](OCC(CO[C@H]2O[C@@H]3O[C@@]4(C)CC[C@H]5[C@H](C)CC[C@@H]([C@H]2C)[C@@]35OO4)=NOCC(=O)O)OC2O[C@@]3(C)CC[C@H]4[C@H](C)CC[C@@H]1[C@@]24OO3` (stereo not given in full), the GI50 in [1] was 0.212 µM; in test [2] it was 0.0982 µM; in test [3], < 0.0151 µM; in test [4], 0.0673 µM; in test [5], 0.613 µM; in test [6], < 0.01 µM. The GI50 in test [7] is 0.0408 µM; in test [8], 0.0968 µM; in [9], 0.0288 µM; in test [10], 0.188 µM. In addition, the TGI in [1] came out at 17.6 µM; in [2], 22.2 µM; in test [3] it was 11.4 µM; in test [4], 21.3 µM; in test [5] it was 18.7 µM; in test [6], 15 µM. Besides, the TGI amounted to 4.57 µM in test [7], 11.3 µM in test [8], 14.9 µM in [9] and 14.5 µM in test [10].
Regarding `O=Cc1coc2ccccc2c1=O`, the TGI in [1] worked out at 45.7 µM; in [2] it was 49.9 µM; in test [3], 48.1 µM; in test [4], 41.4 µM; in test [5] it was 70.4 µM; in test [6], 46.1 µM. Also, the TGI is 60.5 µM in [7], 28.8 µM in [8], 39 µM in [9] and 45.2 µM in [10].
Consider `CCSC1=CC(=O)c2ccccc2C1=O`, for which the GI50 is 4.12 µM in test [1]; 7.82 µM in test [2]; 0.821 µM in [3]; 4.86 µM in test [4]; 16.8 µM in [5]; 15.5 µM in [6]. Also, the GI50 in [7] was 2.5 µM; in test [8] it was 1.28 µM; in [9], 7.11 µM; in test [10], 1.27 µM. For the same compound, the TGI in [1] stood at 15.1 µM; in [2], 23.2 µM; in test [3], 2.39 µM; in test [4] it was 17.1 µM; in [5] it was 40.6 µM; in test [6] it was 34.7 µM. In addition, the TGI worked out at 4.65 µM in test [7], 4.06 µM in test [8], 20.3 µM in [9] and 2.65 µM in test [10].
Regarding `CC/C=C\CCC/C=C1/C(=O)C=C[C@@H]1C/C=C\CCCC(=O)O`, the GI50 was 3.07 µM in test [1]; 4.02 µM in test [2]; 2.02 µM in test [3]; 4.12 µM in test [4]; 5.45 µM in [5]; 2.5 µM in test [6]. For the same compound, the GI50 in test [7] is 5.04 µM; in test [8], 2.16 µM; in test [9], 1.72 µM; in [10] it was 1.89 µM. The TGI is 16.8 µM in [1]; 14 µM in test [2]; 4.78 µM in test [3]; 15.9 µM in [4]; 20 µM in [5]; 5.27 µM in [6]. Moreover, the TGI was determined as 17.2 µM in test [7], 5.58 µM in [8], 3.31 µM in [9] and 3.61 µM in test [10].
Take `CC(=O)/C(C)=N/N/C(N)=N\S(=O)(=O)c1cc(C(=O)Nc2ccccc2)c(Cl)cc1SCc1ccccc1`: the GI50 in [1] is 76.7 µM; in test [2], 6.62 µM; in test [3] it was 64.7 µM; in [4] it was 29.9 µM; in test [5], > 100 µM; in [6], 61.6 µM. Besides, the GI50 in test [7] was 62.4 µM; in test [8], 29.6 µM; in test [9] it was 24 µM; in test [10], 7.89 µM. For the same compound, the TGI was > 100 µM in test [1]; 39.5 µM in [2]; > 100 µM in test [3]; > 100 µM in test [4]; > 100 µM in test [5]; > 100 µM in test [6]. In addition, the TGI in test [7], in test [8], in test [9] and in test [10] was > 100 µM each time.
As to `COc1ccc(/C=C2\COc3ccc(-c4ccccc4)cc3C2=O)cc1O`, the GI50 in [1] is 1.58 µM; in test [2], 6.71 µM; in test [3], 2.4 µM; in test [4] it was 4.37 µM; in [5] it was 3.38 µM; in [6], 1.46 µM. Further, the GI50 in test [7] was 2.14 µM; in test [8] it was 4.16 µM; in test [9] it was 1.51 µM; in [10] it was 3.13 µM. Moreover, the TGI in test [1] is 13 µM; in test [2], > 100 µM; in test [3], 10.5 µM; in [4] it was 15.9 µM; in test [5], 17.2 µM; in test [6], 3.85 µM. In addition, the TGI amounted to 8.3 µM in [7], 16.1 µM in test [8], 3.68 µM in test [9] and 13.1 µM in test [10].
As for `CCNCCNc1cc(-c2ccc(F)cc2)c(C#N)c2nc3ccccc3n12`, the GI50 in [1] is 3.31 µM; in [2], 13.6 µM; in [3], 2.93 µM; in [4] it was 7.26 µM; in test [5], 4.94 µM; in test [6], 3.06 µM. Moreover, the GI50 in test [7] was 2.33 µM; in test [8], 1.82 µM; in test [9], 1.74 µM; in test [10] it was 1.87 µM. For the same compound, the TGI in test [1] worked out at 13.5 µM; in [2] it was 26.7 µM; in test [3], 9.43 µM; in test [4], 22.8 µM; in test [5], 17.8 µM; in test [6] it was 11 µM. Further, the TGI in [7] was determined as 8.45 µM; in [8] it was 3.75 µM; in [9] it was 3.18 µM; in test [10], 3.51 µM.
